This note sets out measurements from article PMC8842743 (Journal of Alzheimer's Disease Reports, 2022).

For the assay, the target named is Porcine gastric mucosa pepsin (Sus scrofa, UniProt P00791). Description: Pepsin FRET assay. The conditions noted are these: read-out: Pepsin FRET Assay Absolute IC50; n = 2; value (SD). The class given is biochemical.
Sequence of Porcine gastric mucosa pepsin (P00791 60-385): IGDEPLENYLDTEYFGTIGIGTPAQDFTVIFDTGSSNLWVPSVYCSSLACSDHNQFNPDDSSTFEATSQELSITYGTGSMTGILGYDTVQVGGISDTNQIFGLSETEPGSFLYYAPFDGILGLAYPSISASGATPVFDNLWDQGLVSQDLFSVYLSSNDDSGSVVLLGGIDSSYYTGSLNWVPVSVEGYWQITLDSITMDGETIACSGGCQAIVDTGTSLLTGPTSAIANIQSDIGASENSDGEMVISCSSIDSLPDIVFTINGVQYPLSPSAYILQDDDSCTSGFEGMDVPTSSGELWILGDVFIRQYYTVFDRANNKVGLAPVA

Take `COc1cnc(C(=O)Nc2ccc(F)c([C@]34CN(c5ncc(F)cn5)C[C@H]3CSC(N)=N4)c2)cn1` [LY3202626]: the IC50 (as a rule, the point on the concentration scale where inhibition reaches its midpoint) is greater than 14 µM.
